Laboratory results published in paper PMC10458458, “Characterization of Anticancer Effects of the Analogs of DJ4, a Novel Selective Inhibitor of ROCK and MRCK Kinases” (Pharmaceuticals, 2023).

Legend:
Assay in all cases: NCI-60 screen (SRB)
Format in all cases: cell-based, human
[1] = system: OVCAR-4; details: OVCAR-4 (Ovarian Cancer), 10 µM, 48 h; negative = cell death vs time zero
Description: (§1) The selected active compounds were screened at NCI, as a part of In Vitro Cell Line Screening Project (IVCLSP), for their effect on cell growth in 60 different cancer cell lines. The 60 human cancer cell line panel included leukemia, melanoma, non-small cell lung cancer, colon, central nervous system (CNS), ovarian, renal, prostate, and breast cancer cell lines. The detailed procedure and applications of NCI-60 cell line screening can be found at https://dtp.cancer.gov/discovery_development/nci-60/default.htm (accessed on 9 January 2023). Briefly, cells were plated in 96-well plates and incubated for 24 h. One set of cells was fixed with trichloroacetic acid at time 0 h (Tz), and SRB (sulphorhodamine B) assays were performed to quantify the cells. The remaining set of cells were treated with 10 µM single concentration of each compound and incubated for 48 h (Te) after which the cells were fixed, and the SRB assays were performed. Data are presented as percent growth relative to the control as 100% according to the following calculations:
(§2) When Te >/= Tz. Growth(%)=Te−Tz/C−Tz∗100 and when Te < Tz. (1) Growth(%)=Te−Tz/Tz∗100
(§3) Values between 0–100 indicate cell growth, zero (0) indicates no cell growth, values < 0 indicate cell death.

[2] = system: HCT-15; details: HCT-15 (Colon Cancer), 10 µM, 48 h; negative = cell death vs time zero
Description: as §1, §2, §3

[3] = system: DU-145; details: DU-145 (Prostate Cancer), 10 µM, 48 h; negative = cell death vs time zero
Description: as §1, §2, §3

[4] = system: A549/ATCC; details: A549/ATCC (Non-Small Cell Lung Cancer), 10 µM, 48 h; negative = cell death vs time zero
Description: as §1, §2, §3

[5] = system: UACC-257; details: UACC-257 (Melanoma), 10 µM, 48 h; negative = cell death vs time zero
Description: as §1, §2, §3

[6] = system: NCI-H23; details: NCI-H23 (Non-Small Cell Lung Cancer), 10 µM, 48 h; negative = cell death vs time zero
Description: as §1, §2, §3

[7] = system: EKVX; details: EKVX (Non-Small Cell Lung Cancer), 10 µM, 48 h; negative = cell death vs time zero
Description: as §1, §2, §3

[8] = system: MDA-MB-231; details: MDA-MB-231 (Breast Cancer), 10 µM, 48 h; negative = cell death vs time zero
Description: as §1, §2, §3

[9] = system: SR; details: SR (Leukemia), 10 µM, 48 h; negative = cell death vs time zero
Description: as §1, §2, §3

[10] = system: MOLT-4; details: MOLT-4 (Leukemia), 10 µM, 48 h; negative = cell death vs time zero
Description: as §1, §2, §3

[11] = system: SNB-75; details: 10 µM, 48 h; for percent cell growth: SNB-75 (CNS Cancer), negative = cell death vs time zero
Description: as §1, §2, §3

[12] = system: LOX IMVI; details: LOX IMVI (Melanoma), 10 µM, 48 h; negative = cell death vs time zero
Description: as §1, §2, §3

[13] = system: HCC-2998; details: for percent cell growth: HCC-2998 (Colon Cancer), negative = cell death vs time zero
Description: as §1, §2, §3

[14] = system: HOP-92; details: HOP-92 (Non-Small Cell Lung Cancer), 10 µM, 48 h; negative = cell death vs time zero
Description: as §1, §2, §3

[15] = system: SK-MEL-5; details: SK-MEL-5 (Melanoma), 10 µM, 48 h; negative = cell death vs time zero
Description: as §1, §2, §3

[16] = system: U251; details: U251 (CNS Cancer), 10 µM, 48 h; negative = cell death vs time zero
Description: as §1, §2, §3

[17] = system: MALME-3M; details: 10 µM, 48 h; for percent cell growth: MALME-3M (Melanoma), negative = cell death vs time zero
Description: as §1, §2, §3

[18] = system: ACHN; details: ACHN (Renal Cancer), 10 µM, 48 h; negative = cell death vs time zero
Description: as §1, §2, §3

[19] = system: HT29; details: HT29 (Colon Cancer), 10 µM, 48 h; negative = cell death vs time zero
Description: as §1, §2, §3

[20] = system: NCI-H460; details: NCI-H460 (Non-Small Cell Lung Cancer), 10 µM, 48 h; negative = cell death vs time zero
Description: as §1, §2, §3

[21] = system: UO-31; details: UO-31 (Renal Cancer), 10 µM, 48 h; negative = cell death vs time zero
Description: as §1, §2, §3

[22] = system: 786-0; details: 786-0 (Renal Cancer), 10 µM, 48 h; negative = cell death vs time zero
Description: as §1, §2, §3

[23] = system: SF-268; details: SF-268 (CNS Cancer), 10 µM, 48 h; negative = cell death vs time zero
Description: as §1, §2, §3

[24] = system: COLO 205; details: COLO 205 (Colon Cancer), 10 µM, 48 h; negative = cell death vs time zero
Description: as §1, §2, §3

[25] = system: TK-10; details: TK-10 (Renal Cancer), 10 µM, 48 h; negative = cell death vs time zero
Description: as §1, §2, §3

[26] = system: NCI/ADR-RES; details: for percent cell growth: NCI/ADR-RES (Ovarian Cancer), negative = cell death vs time zero; for percent cell growth / increase in cell number: 10 µM, 48 h; for increase in cell number: NCI/ADR-RES (ovarian)
Description: as §1, §2, §3

[27] = system: MDA-MB-435; details: MDA-MB-435 (Melanoma), 10 µM, 48 h; negative = cell death vs time zero
Description: as §1, §2, §3

Row | Structure (SMILES) | percent cell growth [1] | percent cell growth [2] | percent cell growth [3] | percent cell growth [4] | percent cell growth [5] | percent cell growth [6] | percent cell growth [7] | percent cell growth [8] | percent cell growth [9] | percent cell growth [10] | percent cell growth [11] | percent cell growth [12] | percent cell growth ([13]; 10 µM, 48 h) | percent cell growth [14] | percent cell growth [15] | percent cell growth [16] | percent cell growth [17] | percent cell growth [18] | percent cell growth [19] | percent cell growth [20] | also measured
1 | Cl.O=C1NC(=NCCc2ccccc2)SC1=Cc1c[nH]c2ncccc12 (mixture of isomers) [DJ4-HCl] | 32.3% | 33.5% | 15.3% | 8.1% | −1.7% | 3.0% | 40.9% | 25.9% | −1.5% | 8.6% | −13.3% | 8.3% | 66.2% | 11.8% | −0.2% | 7.6% | 44.8% | −12.0% | 27.8% | 15.1% | percent cell growth [21]: 36.6%; percent cell growth [22]: 19.7%; percent cell growth [23]: 8.9%; percent cell growth [24]: −6.8%; percent cell growth [25]: 18.8%; percent cell growth [26]: 58.4%; percent cell growth [27]: 18.5%
2 | O=C1N/C(=N\CCc2ccccc2)S/C1=C/c1c[nH]c2ncccc12 [DJ4] | 23.8% | 36.5% | 20.7% | 19.1% | 14.6% | 9.1% | 46.0% | 25.5% | 5.6% | 11.4% | −10.9% | 16.3% | 53.9% | −9.7% | 14.5% | 15.8% | 30.6% | 16.0% | 30.6% | 14.1% | IC50 ([13]; Homo sapiens, HCC-2998 colon cancer cells, NCI-60 screen): > 10 µM; percent cell growth [21]: 25.2%; percent cell growth [22]: 9.0%; percent cell growth [23]: 10.4%; percent cell growth [24]: 4.8%; percent cell growth [25]: 34.2%; IC50 ([26]; Homo sapiens, NCI/ADR-RES ovarian cancer cell line, NCI-60 screen): > 10 µM; percent cell growth [26]: 72.9%; percent cell growth [27]: 21.0%
3 | C=CC/N=C1\NC(=O)/C(=C\c2c[nH]c3ncccc23)S1 [DJ-Allyl] | 34.7% | 24.7% | 12.7% | 13.2% | 9.6% | 6.8% | 30.5% | 19.8% | −9.5% | 5.8% | −67.3% | 0.6% | 44.6% | −1.9% | 2.0% | 0.8% | 40.2% | −1.2% | 26.4% | 2.2% | reduction in cell number ([11]; SNB-75 (CNS)): 60%; increase in cell number ([13]; HCC-2998 (colon), 10 µM, 48 h): ~ 40%; increase in cell number ([17]; MALME-3M (melanoma)): ~ 40%; percent cell growth [21]: 3.1%; percent cell growth [22]: 4.4%; percent cell growth [23]: −3.3%; percent cell growth [24]: −20.1%; percent cell growth [25]: 1.7%; percent cell growth [26]: 42.1%; increase in cell number [26]: ~ 40%; percent cell growth [27]: 21.1%
4 | CC/N=C1\NC(=O)/C(=C\c2c[nH]c3ncccc23)S1 [DJE4] | 19.5% | 16.0% | 9.9% | 11.1% | −15.9% | −7.9% | 14.1% | 10.7% | 0.4% | −6.0% | −71.8% | 1.8% | 10.2% | 4.4% | 9.2% | −9.5% | −6.2% | 0.7% | 4.3% | 2.4% | percent cell growth [21]: 7.5%; percent cell growth [22]: 3.0%; percent cell growth [23]: −5.8%; percent cell growth [24]: −33.3%; percent cell growth [25]: −3.8%; percent cell growth [26]: 29.7%; increase in cell number [26]: 29%; percent cell growth [27]: −0.8%
